Test results published in patent US20250223268A1, “4-Methylsulfonylbenzamide Compound, Preparation Method, Herbicidal Composition And Use” (Jiangsu Flag Chemical Industry Co., Ltd., priority 2022, published 2025).

How the values were obtained:
Assay in all cases: Greenhouse herbicidal activity assay, post-emergence
Type in all cases: in vivo
Details in all cases: Post-emergence test, rate 150 g a.i./hm^2, grade by fresh weight inhibition rate
Cyperus iria = test system: Cyperus iria
Method in brief: (§1)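 Weeds and crops grown in pots of nutrient soil in a growth chamber to the 3-6 leaf stage, then foliar-sprayed and air-dried. Fresh weight inhibition scored 14-21 days after treatment and graded A (≥80%) through E (<20%).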

Digitaria sanguinalis = test system: Digitaria sanguinalis
Method in brief: as §1

Echinochloa crusgalli = test system: Echinochloa crusgalli
Method in brief: as §1

Eclipta prostrata = test system: Eclipta prostrata
Method in brief: as §1

Leptochloa chinensis = test system: Leptochloa chinensis
Method in brief: as §1

For `Cn1nnnc1NC(=O)c1ccc(S(C)(=O)=O)c([S+]([O-])CC#N)c1Cl` (racemic) [Compound 1-63], the “Control efficacy grade, Cyperus iria” value (Cyperus iria) was “A (Fresh weight inhibition rate≥80% to 100%)”, the “Control efficacy grade, Digitaria sanguinalis” value (Digitaria sanguinalis) was “B (Fresh weight inhibition rate≥260% to <80%)” and the “Control efficacy grade, Echinochloa crusgalli” value (Echinochloa crusgalli) was “A (Fresh weight inhibition rate≥80% to 100%)”. The “Control efficacy grade, Eclipta prostrata” value (Eclipta prostrata) was “A (Fresh weight inhibition rate≥80% to 100%)” and the “Control efficacy grade, Leptochloa chinensis” value (Leptochloa chinensis) was “A (Fresh weight inhibition rate≥80% to 100%)”.

`C=CC[S+]([O-])c1c(S(C)(=O)=O)ccc(C(=O)Nc2nnnn2C)c1Cl` (racemic) [Compound 1-68] was tested, and the “Control efficacy grade, Cyperus iria” value (Cyperus iria) was “A (Fresh weight inhibition rate≥80% to 100%)”, the “Control efficacy grade, Digitaria sanguinalis” value (Digitaria sanguinalis) was “A (Fresh weight inhibition rate≥80% to 100%)” and the “Control efficacy grade, Echinochloa crusgalli” value (Echinochloa crusgalli) was “A (Fresh weight inhibition rate≥80% to 100%)”. For the same molecule, the “Control efficacy grade, Eclipta prostrata” value (Eclipta prostrata) was “A (Fresh weight inhibition rate≥80% to 100%)” and the “Control efficacy grade, Leptochloa chinensis” value (Leptochloa chinensis) was “A (Fresh weight inhibition rate≥80% to 100%)”.

With `CCC[S+]([O-])c1c(S(C)(=O)=O)ccc(C(=O)Nc2nnn[nH]2)c1Cl` (racemic) [Compound 1-78] the “Control efficacy grade, Cyperus iria” value (Cyperus iria) was “A (Fresh weight inhibition rate≥80% to 100%)”, the “Control efficacy grade, Digitaria sanguinalis” value (Digitaria sanguinalis) was “A (Fresh weight inhibition rate≥80% to 100%)” and the “Control efficacy grade, Echinochloa crusgalli” value (Echinochloa crusgalli) was “A (Fresh weight inhibition rate≥80% to 100%)”. The “Control efficacy grade, Eclipta prostrata” value (Eclipta prostrata) was “A (Fresh weight inhibition rate≥80% to 100%)” and the “Control efficacy grade, Leptochloa chinensis” value (Leptochloa chinensis) was “A (Fresh weight inhibition rate≥80% to 100%)”.

For `CC(C)[S+]([O-])c1c(S(C)(=O)=O)ccc(C(=O)Nc2nnn[nH]2)c1Cl` (racemic) [Compound 1-83], the “Control efficacy grade, Cyperus iria” value (Cyperus iria) was “A (Fresh weight inhibition rate≥80% to 100%)”, the “Control efficacy grade, Digitaria sanguinalis” value (Digitaria sanguinalis) was “A (Fresh weight inhibition rate≥80% to 100%)” and the “Control efficacy grade, Echinochloa crusgalli” value (Echinochloa crusgalli) was “A (Fresh weight inhibition rate≥80% to 100%)”. The “Control efficacy grade, Eclipta prostrata” value (Eclipta prostrata) was “A (Fresh weight inhibition rate≥80% to 100%)” and the “Control efficacy grade, Leptochloa chinensis” value (Leptochloa chinensis) was “A (Fresh weight inhibition rate≥80% to 100%)”.

`CCC[S+]([O-])c1c(S(C)(=O)=O)ccc(C(=O)Nc2nnnn2CC)c1Cl` (racemic) [Compound 1-88] was tested, and the “Control efficacy grade, Cyperus iria” value (Cyperus iria) was “A (Fresh weight inhibition rate≥80% to 100%)”, the “Control efficacy grade, Digitaria sanguinalis” value (Digitaria sanguinalis) was “A (Fresh weight inhibition rate≥80% to 100%)” and the “Control efficacy grade, Echinochloa crusgalli” value (Echinochloa crusgalli) was “A (Fresh weight inhibition rate≥80% to 100%)”. The “Control efficacy grade, Eclipta prostrata” value (Eclipta prostrata) was “A (Fresh weight inhibition rate≥80% to 100%)” and the “Control efficacy grade, Leptochloa chinensis” value (Leptochloa chinensis) was “A (Fresh weight inhibition rate≥80% to 100%)”.

`CCC[S+]([O-])c1c(S(C)(=O)=O)ccc(C(=O)Nc2ncnn2C)c1Cl` (racemic) [Compound 2-2] was tested, and the “Control efficacy grade, Cyperus iria” value (Cyperus iria) was “A (Fresh weight inhibition rate≥80% to 100%)”, the “Control efficacy grade, Digitaria sanguinalis” value (Digitaria sanguinalis) was “A (Fresh weight inhibition rate≥80% to 100%)” and the “Control efficacy grade, Echinochloa crusgalli” value (Echinochloa crusgalli) was “A (Fresh weight inhibition rate≥80% to 100%)”. For the same molecule, the “Control efficacy grade, Eclipta prostrata” value (Eclipta prostrata) was “A (Fresh weight inhibition rate≥80% to 100%)” and the “Control efficacy grade, Leptochloa chinensis” value (Leptochloa chinensis) was “A (Fresh weight inhibition rate≥80% to 100%)”.

`CC(C)[S+]([O-])c1c(S(C)(=O)=O)ccc(C(=O)Nc2ncnn2C)c1Cl` (racemic) [Compound 2-7, 2-chloro-3-(isopropylsulfinyl)-N-(1-methyl-1H-1,2,4-triazol-5-yl)-4-(methylsulfonyl)benzamide] was tested, and the pest or weed control at 150 g/ha (Cyperus iria; Cyperus iria, read-out: Control efficacy grade, Cyperus iria) was 80 to 100%, the pest or weed control at 150 g/ha (Digitaria sanguinalis; Digitaria sanguinalis, read-out: Control efficacy grade, Digitaria sanguinalis) was 80 to 100% and the pest or weed control at 150 g/ha (Echinochloa crusgalli; Echinochloa crus-galli, read-out: Control efficacy grade, Echinochloa crusgalli) was 80 to 100%. The pest or weed control at 150 g/ha (Eclipta prostrata; Eclipta prostrata, read-out: Control efficacy grade, Eclipta prostrata) was 80 to 100% and the pest or weed control at 150 g/ha (Leptochloa chinensis; Dinebra chinensis, read-out: Control efficacy grade, Leptochloa chinensis) was 80 to 100%.

In the case of `CCCC[S+]([O-])c1c(S(C)(=O)=O)ccc(C(=O)Nc2ncnn2C)c1Cl` (racemic) [Compound 2-12], the “Control efficacy grade, Cyperus iria” value (Cyperus iria) is reported as “A (Fresh weight inhibition rate≥80% to 100%)”, the “Control efficacy grade, Digitaria sanguinalis” value (Digitaria sanguinalis) is reported as “A (Fresh weight inhibition rate≥80% to 100%)” and the “Control efficacy grade, Echinochloa crusgalli” value (Echinochloa crusgalli) is reported as “A (Fresh weight inhibition rate≥80% to 100%)”. For the same molecule, the “Control efficacy grade, Eclipta prostrata” value (Eclipta prostrata) was “A (Fresh weight inhibition rate≥80% to 100%)” and the “Control efficacy grade, Leptochloa chinensis” value (Leptochloa chinensis) was “A (Fresh weight inhibition rate≥80% to 100%)”.

With `CCC(C)S(=O)(=O)c1c(S(C)(=O)=O)ccc(C(=O)Nc2ncnn2C)c1Cl` (racemic) [Compound 2-24] the “Control efficacy grade, Cyperus iria” value (Cyperus iria) was “A (Fresh weight inhibition rate≥80% to 100%)”, the “Control efficacy grade, Digitaria sanguinalis” value (Digitaria sanguinalis) was “A (Fresh weight inhibition rate≥80% to 100%)” and the “Control efficacy grade, Echinochloa crusgalli” value (Echinochloa crusgalli) was “A (Fresh weight inhibition rate≥80% to 100%)”. The “Control efficacy grade, Eclipta prostrata” value (Eclipta prostrata) was “A (Fresh weight inhibition rate≥80% to 100%)” and the “Control efficacy grade, Leptochloa chinensis” value (Leptochloa chinensis) was “A (Fresh weight inhibition rate≥80% to 100%)”.

With `Cn1ncnc1NC(=O)c1ccc(S(C)(=O)=O)c([S+]([O-])CC2CC2)c1Cl` (racemic) [Compound 2-28] the “Control efficacy grade, Cyperus iria” value (Cyperus iria) was “A (Fresh weight inhibition rate≥80% to 100%)”, the “Control efficacy grade, Digitaria sanguinalis” value (Digitaria sanguinalis) was “A (Fresh weight inhibition rate≥80% to 100%)” and the “Control efficacy grade, Echinochloa crusgalli” value (Echinochloa crusgalli) was “A (Fresh weight inhibition rate≥80% to 100%)”. For the same molecule, the “Control efficacy grade, Eclipta prostrata” value (Eclipta prostrata) was “A (Fresh weight inhibition rate≥80% to 100%)” and the “Control efficacy grade, Leptochloa chinensis” value (Leptochloa chinensis) was “A (Fresh weight inhibition rate≥80% to 100%)”.

With `Cn1ncnc1NC(=O)c1ccc(S(C)(=O)=O)c([S+]([O-])C2CC2)c1Cl` (racemic) [Compound 2-33] the “Control efficacy grade, Cyperus iria” value (Cyperus iria) was “A (Fresh weight inhibition rate≥80% to 100%)”, the “Control efficacy grade, Digitaria sanguinalis” value (Digitaria sanguinalis) was “A (Fresh weight inhibition rate≥80% to 100%)” and the “Control efficacy grade, Echinochloa crusgalli” value (Echinochloa crusgalli) was “A (Fresh weight inhibition rate≥80% to 100%)”. The “Control efficacy grade, Eclipta prostrata” value (Eclipta prostrata) was “A (Fresh weight inhibition rate≥80% to 100%)” and the “Control efficacy grade, Leptochloa chinensis” value (Leptochloa chinensis) was “A (Fresh weight inhibition rate≥80% to 100%)”.

`Cn1ncnc1NC(=O)c1ccc(S(C)(=O)=O)c([S+]([O-])C2CCC2)c1Cl` (racemic) [Compound 2-38] was tested, and the “Control efficacy grade, Cyperus iria” value (Cyperus iria) was “A (Fresh weight inhibition rate≥80% to 100%)”, the “Control efficacy grade, Digitaria sanguinalis” value (Digitaria sanguinalis) was “A (Fresh weight inhibition rate≥80% to 100%)” and the “Control efficacy grade, Echinochloa crusgalli” value (Echinochloa crusgalli) was “A (Fresh weight inhibition rate≥80% to 100%)”. For the same molecule, the “Control efficacy grade, Eclipta prostrata” value (Eclipta prostrata) was “A (Fresh weight inhibition rate≥80% to 100%)” and the “Control efficacy grade, Leptochloa chinensis” value (Leptochloa chinensis) was “A (Fresh weight inhibition rate≥80% to 100%)”.

With `Cn1ncnc1NC(=O)c1ccc(S(C)(=O)=O)c([S+]([O-])C2CCCC2)c1Cl` (racemic) [Compound 2-43] the “Control efficacy grade, Cyperus iria” value (Cyperus iria) was “A (Fresh weight inhibition rate≥80% to 100%)”, the “Control efficacy grade, Digitaria sanguinalis” value (Digitaria sanguinalis) was “A (Fresh weight inhibition rate≥80% to 100%)” and the “Control efficacy grade, Echinochloa crusgalli” value (Echinochloa crusgalli) was “A (Fresh weight inhibition rate≥80% to 100%)”. The “Control efficacy grade, Eclipta prostrata” value (Eclipta prostrata) was “A (Fresh weight inhibition rate≥80% to 100%)” and the “Control efficacy grade, Leptochloa chinensis” value (Leptochloa chinensis) was “A (Fresh weight inhibition rate≥80% to 100%)”.
